The assay addresses T1, human ACC2 (Homo sapiens, UniProt O00763).
T1 construct: made in house; host or cells: insect cells (baculoviral expression system)
The experiment in a line: ACC2 assay, spectrophotometric 384 well assay (NADH-linked, coupled lactate dehydrogenase/pyruvate kinase). Particulars: ACC2 assay, hACC2 construct lacking 128 N-terminal amino acids, 25° C., 340 nm; read-out: IC50. The class given is biochemical. Put shortly: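 ADP output tracked via pyruvate kinase/lactate dehydrogenase NADH oxidation, slope at 340 nm over 15 min, 25° C, with 500 μM ATP and 200 μM each acetyl-CoA and NADH. Enzyme: insect-cell-expressed human ACC2, N-terminal 128 residues deleted; pH 7.5 Tris with citrate, KHCO3. IC50 from four-parameter regression versus vehicle and no-acetyl-CoA controls.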
T1 sequence (O00763 129-2458 limits assumed): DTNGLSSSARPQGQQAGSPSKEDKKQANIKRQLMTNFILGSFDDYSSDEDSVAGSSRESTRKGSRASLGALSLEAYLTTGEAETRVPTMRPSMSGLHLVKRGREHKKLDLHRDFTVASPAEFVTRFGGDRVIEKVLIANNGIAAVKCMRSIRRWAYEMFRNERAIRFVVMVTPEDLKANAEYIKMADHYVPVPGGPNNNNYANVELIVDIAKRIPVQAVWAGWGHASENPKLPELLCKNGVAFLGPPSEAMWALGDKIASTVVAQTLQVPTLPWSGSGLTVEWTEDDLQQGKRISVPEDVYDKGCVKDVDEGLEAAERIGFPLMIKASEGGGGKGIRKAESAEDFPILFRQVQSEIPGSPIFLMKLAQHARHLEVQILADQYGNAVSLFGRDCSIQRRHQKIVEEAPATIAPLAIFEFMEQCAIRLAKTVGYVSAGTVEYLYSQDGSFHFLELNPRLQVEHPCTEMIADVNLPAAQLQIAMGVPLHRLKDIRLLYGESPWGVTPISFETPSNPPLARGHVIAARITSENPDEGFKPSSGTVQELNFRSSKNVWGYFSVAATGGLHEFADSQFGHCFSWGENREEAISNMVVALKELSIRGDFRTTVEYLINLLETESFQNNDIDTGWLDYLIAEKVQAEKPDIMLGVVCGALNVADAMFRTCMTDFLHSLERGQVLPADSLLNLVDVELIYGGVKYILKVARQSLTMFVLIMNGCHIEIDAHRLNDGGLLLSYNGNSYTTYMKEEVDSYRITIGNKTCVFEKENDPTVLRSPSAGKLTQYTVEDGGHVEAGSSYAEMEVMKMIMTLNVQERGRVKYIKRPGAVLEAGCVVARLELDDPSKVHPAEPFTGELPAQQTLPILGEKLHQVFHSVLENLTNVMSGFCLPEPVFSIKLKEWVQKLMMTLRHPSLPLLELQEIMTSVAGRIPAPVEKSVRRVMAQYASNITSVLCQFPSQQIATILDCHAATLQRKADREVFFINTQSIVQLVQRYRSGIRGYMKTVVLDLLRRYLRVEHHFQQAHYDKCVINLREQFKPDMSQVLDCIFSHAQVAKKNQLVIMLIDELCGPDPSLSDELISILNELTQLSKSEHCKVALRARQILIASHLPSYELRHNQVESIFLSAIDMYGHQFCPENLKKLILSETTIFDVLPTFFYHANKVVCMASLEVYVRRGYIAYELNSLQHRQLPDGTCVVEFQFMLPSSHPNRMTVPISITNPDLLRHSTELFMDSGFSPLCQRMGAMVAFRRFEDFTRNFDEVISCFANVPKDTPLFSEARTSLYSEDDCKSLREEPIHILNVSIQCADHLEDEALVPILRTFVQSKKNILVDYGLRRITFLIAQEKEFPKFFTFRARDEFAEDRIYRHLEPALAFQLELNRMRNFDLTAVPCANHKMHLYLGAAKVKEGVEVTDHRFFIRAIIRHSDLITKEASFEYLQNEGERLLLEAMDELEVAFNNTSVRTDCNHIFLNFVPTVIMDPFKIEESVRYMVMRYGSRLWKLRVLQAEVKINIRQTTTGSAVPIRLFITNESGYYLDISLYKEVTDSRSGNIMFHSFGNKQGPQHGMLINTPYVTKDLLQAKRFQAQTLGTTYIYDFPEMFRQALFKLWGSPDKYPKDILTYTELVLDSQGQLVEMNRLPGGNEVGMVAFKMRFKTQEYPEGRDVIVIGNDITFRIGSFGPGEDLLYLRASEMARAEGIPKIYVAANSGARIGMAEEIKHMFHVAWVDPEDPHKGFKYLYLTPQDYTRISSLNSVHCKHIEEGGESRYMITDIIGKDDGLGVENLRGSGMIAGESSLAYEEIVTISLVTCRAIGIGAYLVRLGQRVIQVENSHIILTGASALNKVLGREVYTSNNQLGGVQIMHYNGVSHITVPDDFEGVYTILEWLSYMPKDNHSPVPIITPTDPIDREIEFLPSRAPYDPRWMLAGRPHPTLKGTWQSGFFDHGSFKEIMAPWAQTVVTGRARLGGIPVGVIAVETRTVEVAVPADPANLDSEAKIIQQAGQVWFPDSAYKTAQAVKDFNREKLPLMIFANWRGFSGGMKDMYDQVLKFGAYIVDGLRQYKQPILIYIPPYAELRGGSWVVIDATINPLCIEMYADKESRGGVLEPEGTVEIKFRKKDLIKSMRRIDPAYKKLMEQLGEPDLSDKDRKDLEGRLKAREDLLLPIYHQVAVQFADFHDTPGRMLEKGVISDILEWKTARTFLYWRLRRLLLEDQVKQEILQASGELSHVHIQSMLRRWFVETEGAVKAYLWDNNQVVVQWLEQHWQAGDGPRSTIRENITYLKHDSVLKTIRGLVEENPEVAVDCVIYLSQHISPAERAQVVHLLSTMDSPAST
The term IC50 denotes the concentration needed to halve the response being measured. On to `CC(=O)N[C@@H](C)c1ccc(C2CCN(c3ccnc(OC4CCOCC4)c3)CC2)cc1` [Example 19.17], for which the IC50 was determined as 0.33 µM. The same measure for `CCOc1ccc(N2CCC(c3ccc([C@H](C)NC(=O)NC4CC4)cc3)CC2)cc1` [Example 14.3]: 1.4 µM; for `CC(=O)N[C@@H](C)c1ccc(C2CCN(c3ccc(-c4ccc5c(c4)OCO5)cn3)CC2)cc1` [Example 10.312]: 0.16 µM; for `C[C@H](NC(=O)N(C)C)c1ccc(C2CCN(c3ccnc(Oc4cncnc4)c3)CC2)cc1` [Example 1.107]: 0.52 µM. Consider `CCOc1ccc(N2CCC(c3ccc([C@H](C)NC(=O)N(CC)CC)cc3)CC2)cc1` [Example 14.67], for which the IC50 turned out to be 1.9 µM. The same measure for `CC(=O)N[C@@H](C)c1ccc(C2CCN(c3ncc(C4CC4)cn3)CC2)cc1` [Example 10.202]: 0.57 µM; for `CC(=O)N[C@@H](C)c1ccc(C2CCN(c3ncc(C(=O)Nc4cccc(F)c4)cn3)CC2)cc1` [Example 18.2]: 1.4 µM; for `CC(=O)N[C@@H](C)c1ccc(C2CCN(c3ncc(C(=O)NC(C)C)cn3)CC2)cc1` [Example 18.48]: 3.6 µM. With `CC(=O)N[C@@H](C)c1ccc(C2CCN(c3ncc(OCC4CC4(F)F)cn3)CC2)cc1` (some centres unmarked) [Example 4.53], the IC50 turned out to be 0.16 µM.

Regarding `C[C@H](NC(=O)N(C)C)c1ccc(C2CCN(c3ccc(OC4CC4)cc3)CC2)cc1` [Example 1.112], the IC50 was found to be 0.21 µM. Regarding `CC(=O)N[C@@H](C)c1ccc(C2CCN(c3ncc(C(=O)NCc4ccn(C)n4)cn3)CC2)cc1` [Example 18.22], the IC50 came to 11.4 µM. `CC(=O)N[C@@H](C)c1ccc(C2CCN(c3ccc(OC(C)C)cc3C#N)CC2)cc1` [Example 1.50]: the IC50 is 0.12 µM. Turning to `CCCOc1ccc(N2CCC(c3ccc(C(CC)NC(C)=O)cc3)CC2)c(OC)c1` (centres unmarked) [Example 15.20], the IC50 was 3.9 µM. For the compound `CC(=O)N[C@@H](C)c1ccc(C2CCN(c3ncc(C(=O)N4CCCC4CN(C)C)cn3)CC2)cc1` (some centres unmarked) [Example 18.88], the IC50 came to 16.6 µM.

With `CCOc1ccc(N2CCC(c3ccc(C(CC)NC(C)=O)cc3)CC2)cc1` (centres unmarked) [Example 1.206], the IC50 stood at 4.7 µM. For the compound `CCCC(C)Oc1ccc(N2CCC(c3ccc([C@H](C)NC(C)=O)cc3)CC2)cc1` (some centres unmarked) [Example 9.19], the IC50 was found to be 0.14 µM.

As to `CC(=O)N[C@@H](C)c1ccc(C2CCN(c3ccnc(OCC4CC4)n3)CC2)cc1` [Example 11.131], the IC50 turned out to be 1.1 µM. With `CC(=O)N[C@@H](C)c1ccc(C2CCN(c3ncc(OC(C)C)cn3)CC2)cc1` [Example 4.51], the IC50 came out at 0.31 µM. With `CC(=O)N[C@@H](C)c1ccc(C2CCN(c3ncc(C(=O)NCC4CCCCN4)cn3)CC2)cc1` (some centres unmarked) [Example 18.65], the IC50 came to 10.2 µM. As for `COC(=O)Cc1ccc(N2CCC(c3ccc([C@H](C)NC(C)=O)cc3)CC2)cc1` [Example 15.1, (S)-(4-{4-[4-(1-Acetylamino-ethyl)-phenyl]-piperidin-1-yl}-phenyl)-acetic acid methyl ester], the IC50 is 2.8 µM. With `CC(=O)N[C@@H](C)c1ccc(C2CCN(c3ccnc(OCC4CC4(F)F)c3)CC2)cc1` (some centres unmarked) [Example 19.26], the IC50 stood at 0.15 µM. The same measure for `COC1CCN(c2cc(N3CCC(c4ccc([C@H](C)NC(C)=O)cc4)CC3)ncn2)CC1` [Example 11.81]: 2.3 µM; for `CC(=O)N[C@@H](C)c1ccc(C2CCN(c3ncc(-c4ccccc4)c(C)n3)CC2)cc1` [Example 21.2, (S)—N-(1-{4-[1-(4-Methyl-5-phenyl-pyrimidin-2-yl)-piperidin-4-yl]-phenyl}-ethyl)-acetamide]: 0.15 µM; for `CCCN(C)C(=O)N[C@@H](C)c1ccc(C2CCN(c3ccc(OCC)cc3)CC2)cc1` [Example 14.54]: 1.1 µM.

`CC(=O)N[C@@H](C)c1ccc(C2CCN(c3ccnc(Oc4ccccc4F)n3)CC2)cc1` [Example 11.26]: the IC50 is 0.38 µM. In the case of `CC(=O)N[C@@H](C)c1ccc(C2CCN(c3ncc(C(=O)NC4(C#N)CC4)cn3)CC2)cc1` [Example 18.70], the IC50 stood at 17.4 µM.

For `CCOc1ccc(N2CCC(c3ccc([C@H](C)NC(=O)Nc4cncnc4)cc3)CC2)cc1` [Example 14.59], the IC50 amounted to 1.5 µM. As for `CCOc1ccc(N2CCC(c3ccc([C@H](C)NS(=O)(=O)CC)cc3)CC2)cc1` [Example 17.2], the IC50 was determined as 4.2 µM. In the case of `CCCNc1cc(N2CCC(c3ccc([C@H](C)NC(C)=O)cc3)CC2)ncn1` [Example 11.42], the half-maximal inhibitory concentration (IC50) was found to be 7.1 µM. For `COc1cc(C)c(N2CCC(c3ccc([C@H](C)NC(C)=O)cc3)CC2)cn1` [Example 1.56], the IC50 amounted to 0.72 µM.

Turning to `CC(=O)N[C@@H](C)c1ccc(C2CCN(c3ccccc3)CC2)cc1` [Example 1.45], the IC50 is 0.37 µM. In the case of `CCOc1ccc(N2CCC(c3ccc([C@H](C)NC(C)=O)cc3)CC2)cc1` [Example 1.1, (S)—N-(1-{4-[1-(4-Ethoxy-phenyl)-piperidin-4-yl]-phenyl}-ethyl)-acetamide], the IC50 was 0.13 µM. As for `CC(=O)N[C@@H](C)c1ccc(C2CCN(c3cccc(OCCC(C)C)c3)CC2)cc1` [Example 9.1, (S)—N-[1-(4-{1-[3-(Isopentyloxy)-phenyl]-piperidin-4-yl}-phenyl)-ethyl]-acetamide], the IC50 was 0.37 µM. `CC(=O)N[C@@H](C)c1ccc(C2CCN(c3cc(-c4ccc(C#N)s4)ncn3)CC2)cc1` [Example 22.8]: the IC50 was 2.9 µM. In the case of `CC(=O)N[C@@H](C)c1ccc(C2CCN(c3cc(OC(C)C)ncn3)CC2)cc1` [Example 11.2], the IC50 came to 0.08 µM.

As to `CCOc1cccc(-c2ccc(N3CCC(c4ccc([C@H](C)NC(C)=O)cc4)CC3)nc2)c1` [Example 10.306], the IC50 worked out at 0.31 µM. Regarding `COc1ccc(N2CCC(c3ccc([C@H](C)NC(C)=O)cc3)CC2)cc1F` [Example 1.157], the IC50 was determined as 0.58 µM. The same measure for `COC1CCN(C(=O)c2cnc(N3CCC(c4ccc([C@H](C)NC(C)=O)cc4)CC3)nc2)CC1` [Example 18.24]: 5.2 µM; for `CCC(CC)Oc1nccc(N2CCC(c3ccc([C@H](C)NC(C)=O)cc3)CC2)n1` [Example 11.21]: 0.89 µM. Regarding `CCOc1ccc(N2CCC(c3ccc([C@H](C)NC(=O)NC)cc3)CC2)cc1` [Example 14.1, (S)-1-(1-{4-[1-(4-Ethoxy-phenyl)-piperidin-4-yl]-phenyl}-ethyl)-3-methyl-urea], the IC50 turned out to be 0.47 µM. Take `CC(=O)N[C@@H](C)c1ccc(C2CCN(c3ncc(C(=O)NCC4CCN(Cc5ccccc5)C4)cn3)CC2)cc1` (some centres unmarked) [Example 18.62]: the IC50 was 11.8 µM. As to `COCCOc1ccc(N2CCC(c3ccc([C@H](C)NC(C)=O)cc3)CC2)cc1OC` [Example 8.22], the IC50 is 14.6 µM. With `CC(=O)N[C@@H](C)c1ccc(C2CCN(c3ccc4ccc(Cl)cc4n3)CC2)cc1` [Example 5.31], the IC50 was 1 µM. On to `CC(=O)N[C@@H](C)c1ccc(C2CCN(c3ccc(OC(C)c4ccccc4)cc3)CC2)cc1` (some centres unmarked) [Example 9.35], for which the IC50 turned out to be 0.21 µM. In the case of `CC(=O)N[C@@H](C)c1ccc(C2CCN(c3ccc(Oc4ccccc4)nc3)CC2)cc1` [Example 3.1, (S)—N-{1-[4-(6′-Phenoxy-3,4,5,6-tetrahydro-2H-1,3′]bipyridinyl-4-yl)-phenyl′-ethyl}-acetamide], the IC50 was determined as 0.36 µM.

Take `CCCOc1ccc(N2CCC(c3ccc([C@H](C)NC(=O)CC)cc3)CC2)c(OC)c1` [Example 1.147]: the IC50 turned out to be 0.49 µM. On to `CC(=O)N[C@@H](C)c1ccc(C2CCN(c3ccc4oc(=O)[nH]c4c3)CC2)cc1` [Example 1.68], for which the IC50 came out at 23.9 µM. Regarding `CC(=O)N[C@@H](C)c1ccc(C2CCN(c3ccc(OCC4CC4)nc3)CC2)cc1` [Example 1.59], the IC50 was found to be 0.14 µM. The same measure for `CCC(=O)N[C@@H](C)c1ccc(C2CCN(c3ccc(OC4CC4)cc3)CC2)cc1` [Example 1.151]: 0.11 µM; for `CCOc1ccc(-c2cnc(N3CCC(c4ccc([C@H](C)NC(C)=O)cc4)CC3)nc2)cc1C` [Example 10.125]: 0.64 µM. Take `CC(C)Oc1cc(N2CCC(c3ccc([C@H](C)NC(=O)N(C)C)cc3)CC2)ccn1` [Example 1.128]: the IC50 is 0.12 µM. Consider `CC(=O)N[C@@H](C)c1ccc(C2CCN(c3ccnc(OCC4(C#N)CC4)c3)CC2)cc1` [Example 19.28], for which the 50% inhibitory concentration (IC50) amounted to 0.23 µM. Turning to `COc1ccc(-c2cnc(N3CCC(c4ccc([C@H](C)NC(C)=O)cc4)CC3)nc2)c(C(F)(F)F)c1` [Example 10.36], the IC50 amounted to 0.21 µM. Consider `CC(=O)N[C@@H](C)c1ccc(C2CCN(c3ccnc(N4CCCC4)n3)CC2)cc1` [Example 11.114], for which the IC50 is 0.18 µM.

For `COCc1nc2cc(N3CCC(c4ccc([C@H](C)NC(C)=O)cc4)CC3)ccc2o1` [Example 15.7], the IC50 worked out at 1.5 µM. Consider `CC(=O)N[C@@H](C)c1ccc(C2CCN(c3nc4ccc(C)cc4s3)CC2)cc1` [Example 5.56], for which the IC50 is 1.2 µM. `COc1cc2ccnc(N3CCC(c4ccc([C@H](C)NC(C)=O)cc4)CC3)c2cc1OC` [Example 4.31]: the IC50 is 2 µM.

As for `CCOc1ccc(N2CCC(c3ccc([C@H](C)NC(=O)c4cnc[nH]4)cc3)CC2)cc1` [Example 6.24], the IC50 is 3.9 µM.

As to `CC(=O)N[C@@H](C)c1ccc(C2CCN(c3ccnc(Oc4ccc(F)cc4)n3)CC2)cc1` [Example 11.6], the IC50 is 0.18 µM. The same measure for `CC(=O)N[C@@H](C)c1ccc(C2CCN(c3ccc(OCCC4CC4)cc3)CC2)cc1` [Example 8.63]: 0.1 µM; for `CC(=O)N(C)[C@@H](C)c1ccc(C2CCN(c3ccc(OCC4CC4)cc3)CC2)cc1` [Example 39.1, (S)—N-(1-(4-(1-(4-Cyclopropylmethoxyphenyl)piperidin-4-yl)phenyl)ethyl)-N-methylacetamide]: 12 µM; for `CCOc1ccc(N2CCC(c3ccc([C@H](C)NC(=O)OC)cc3)CC2)c(C#N)c1` [Example 15.18]: 0.33 µM.

The values are drawn from patent US9006450B2 (Boehringer Ingelheim International GmbH, priority 2010, dated 2015).
